According to the supplement of paper PMC10331698:
± gives the standard deviation of the averaged measurements.

What was measured:
Assay in all cases: level (log10 ratio to DMSO vehicle control); higher = higher biomarker level / cell amount than vehicle control
Details in all cases: in DMSO
[1] = compound: O=C(O)C(F)(F)C(F)(F)C(F)(F)C(F)(F)C(F)(F)C(F)(F)C(F)(F)C(F)(F)C(F)(F)C(F)(F)C(F)(F)C(F)(F)F [Perfluorotridecanoic acid]
Protocol: (§1)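 BioMAP Diversity Plus panel of 12 human primary cell co-culture systems (3C, 4H, LPS, SAg, BT, BF4T, BE3C, CASM3C, HDF3CGF, KF3CT, MyoF, Mphg). Compounds were added 1 h before stimulation and left for 24 h (MyoF 48 h; BT 72 h for soluble read-outs or 6 d for IgG). Biomarkers were read by ELISA, cytotoxicity by SRB, PBMC viability and proliferation by Alamar Blue. Each well value was divided by the mean of 8 DMSO control wells on the same plate and log10 transformed; duplicate blinded samples were tested at 4 concentrations.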

[2] = compound: O=S(=O)(O)C(F)(F)C(F)(F)C(F)(F)C(F)(F)F [Perfluorobutanesulfonic acid]
Protocol: as §1

1-(Perfluorohexyl)octane = compound: CCCCCCCCC(F)(F)C(F)(F)C(F)(F)C(F)(F)C(F)(F)C(F)(F)F [1-(Perfluorohexyl)octane]
Protocol: as §1

Perfluorohexanoic acid = compound: O=C(O)C(F)(F)C(F)(F)C(F)(F)C(F)(F)C(F)(F)F [Perfluorohexanoic acid]
Protocol: as §1

Perfluorooctanamidine = compound: N=C(N)C(F)(F)C(F)(F)C(F)(F)C(F)(F)C(F)(F)C(F)(F)C(F)(F)F [Perfluorooctanamidine]
Protocol: as §1

[3] = compound: C=CC(=O)OCCC(F)(F)C(F)(F)C(F)(F)C(F)(F)F [2-(Perfluorobutyl)ethyl acrylate]
Protocol: as §1

| Test System | level (log10) ([1]; 1500 nM) | level (log10) ([1]; 4400 nM) | level (log10) ([1]; 13000 nM) | level (log10) ([1]; 40000 nM) | level (log10) ([2]; 6700 nM) | level (log10) ([2]; 20000 nM) | level (log10) ([2]; 60000 nM) | level (log10) (1-(Perfluorohexyl)octane; 6700 nM) | level (log10) (1-(Perfluorohexyl)octane; 20000 nM) | level (log10) (Perfluorohexanoic acid; 6700 nM) | level (log10) (Perfluorohexanoic acid; 20000 nM) | level (log10) (Perfluorohexanoic acid; 60000 nM) | level (log10) (Perfluorooctanamidine; 6700 nM) | level (log10) (Perfluorooctanamidine; 20000 nM) | level (log10) (Perfluorooctanamidine; 60000 nM) | level (log10) ([3]; 6700 nM) | level (log10) ([3]; 20000 nM) | level (log10) ([3]; 60000 nM) |
| --- | --- | --- | --- | --- | --- | --- | --- | --- | --- | --- | --- | --- | --- | --- | --- | --- | --- | --- |
| BE3C:CXCL9/MIG | -0.0015 ± 0.015 | -0.0045 ± 0.0035 | -0.014 ± 0.0099 | -0.0125 ± 0.013 | 0.01 ± 0.034 | 0.0025 ± 0.023 | 0.013 ± 0.0057 | 0.0055 ± 0.0035 | 0.0015 ± 0.0021 | 0.005 ± 0.0014 | 0 ± 0.0099 | 0.001 ± 0.0099 | 0.0135 ± 0.018 | 0.0085 ± 0.0092 | 0.037 | 0.0005 ± 0.005 | -0.0085 ± 0.005 | 0.003 ± 0.0057 |
| BE3C:CXCL10/IP-10 | -0.0015 ± 0.029 | -0.019 ± 0.027 | -0.038 ± 0.03 | -0.0365 ± 0.056 | 0.009 ± 0.038 | -0.0015 ± 0.028 | 0.0005 ± 0.018 | 0.0055 ± 0.013 | -0.0025 ± 0.012 | 0.0095 ± 0.018 | 0.0125 ± 0.0092 | 0.0245 ± 0.011 | 0.0045 ± 0.023 | -0.0055 ± 0.0035 | 0.003 | -0.0025 ± 0.00071 | -0.007 ± 0.0057 | -0.012 ± 0.013 |
| BE3C:CXCL11/I-TAC | 0.007 ± 0.0014 | -0.048 ± 0.027 | -0.089 ± 0.021 | 0 ± 0.0085 | 0.0115 ± 0.012 | 0.0065 ± 0.00071 | 0.007 ± 0.0071 | 0.003 ± 0.016 | -0.0035 ± 0.0021 | 0.008 ± 0.014 | 0.0065 ± 0.0064 | 0.027 ± 0.0042 | -0.0055 ± 0.0078 | -0.014 ± 0.016 | -0.014 | 0.0035 ± 0.00071 | -0.0065 ± 0.012 | -0.018 ± 0.0028 |
| BE3C:EGFR | 0.0145 ± 0.04 | -0.008 ± 0.031 | 0.0005 ± 0.022 | 0.006 ± 0.0014 | -0.0045 ± 0.021 | 0 ± 0.018 | 0.0005 ± 0.0092 | -0.001 ± 0.0042 | -0.013 ± 0.0028 | 0.003 ± 0.0014 | -0.005 ± 0.0028 | 0.0025 ± 0.015 | -0.009 ± 0.0014 | -0.013 ± 0.014 | -0.022 | -0.003 | -0.0065 ± 0.00071 | -0.014 ± 0.023 |
| BE3C:HLA-DR | -0.0105 ± 0.04 | -0.0325 ± 0.013 | -0.0355 ± 0.0078 | -0.0195 ± 0.019 | -0.003 | 0 ± 0.0028 | 0.0035 ± 0.018 | 0.0095 ± 0.036 | 0.0015 ± 0.005 | -0.0025 ± 0.0021 | -0.011 ± 0.0028 | -0.012 ± 0.0099 | -0.0015 ± 0.018 | -0.003 ± 0.021 | -0.01 | 0.0145 ± 0.022 | -0.02 ± 0.0071 | -0.0575 ± 0.005 |
| BE3C:IL-1alpha | 0.027 ± 0.04 | -0.0165 ± 0.0078 | 0.0035 ± 0.023 | 0.024 ± 0.0057 | -0.0175 ± 0.012 | -0.013 ± 0.0085 | -0.0075 ± 0.012 | 0.001 ± 0.02 | 0.0415 ± 0.044 | 0.005 ± 0.0071 | -0.0115 ± 0.0035 | -0.002 ± 0.0042 | 0.0065 ± 0.026 | 0.002 ± 0.0028 | 0.047 | -0.0035 ± 0.022 | -0.0305 ± 0.03 | -0.012 ± 0.0057 |
| BF4T:CCL2/MCP-1 | 0.025 ± 0.0028 | 0.0195 ± 0.028 | 0.035 ± 0.0042 | 0.0175 ± 0.013 | 0.028 ± 0.0014 | 0.026 ± 0.024 | 0.033 ± 0.018 | -0.014 ± 0.028 | 0.0175 ± 0.005 | -0.0045 ± 0.0021 | -0.012 ± 0.024 | -0.0015 ± 0.052 | 0.031 ± 0.0099 | 0.025 ± 0.045 | 0.06 | -0.009 ± 0.013 | -0.01 ± 0.0028 | -0.0325 ± 0.029 |
| BF4T:CCL26/Eotaxin-3 | -0.0035 ± 0.052 | -0.0725 ± 0.022 | -0.089 ± 0.04 | -0.0555 ± 0.026 | -0.057 ± 0.09 | -0.014 ± 0.035 | -0.003 ± 0.047 | 0.015 ± 0.051 | 0.0015 ± 0.054 | 0.0135 ± 0.015 | 0.005 ± 0.024 | 0.0115 ± 0.011 | 0.0375 ± 0.044 | -0.0585 ± 0.026 | -0.106 | -0.0005 ± 0.018 | -0.0295 ± 0.023 | -0.019 ± 0.02 |
| BF4T:CD54/ICAM-1 | 0.01 ± 0.023 | 0.0115 ± 0.015 | -0.01 ± 0.0028 | 0.0115 ± 0.025 | -0.027 ± 0.0085 | -0.002 ± 0.0014 | -0.0115 ± 0.019 | 0.0005 ± 0.005 | -0.0085 ± 0.023 | -0.011 ± 0.0014 | -0.0135 ± 0.0064 | -0.0005 ± 0.0021 | -0.001 ± 0.0085 | -0.006 ± 0.017 | 0.039 | -0.0085 ± 0.0078 | -0.013 ± 0.0099 | -0.064 ± 0.014 |
| BF4T:CD90 | -0.0015 ± 0.016 | -0.002 ± 0.016 | -0.001 ± 0.013 | 0.005 ± 0.0014 | -0.007 ± 0.0042 | -0.008 ± 0.021 | -0.015 ± 0.011 | -0.004 ± 0.0028 | -0.013 ± 0.0071 | -0.0045 ± 0.011 | -0.0005 ± 0.011 | -0.007 ± 0.011 | 0.0025 ± 0.015 | -0.0115 ± 0.005 | 0.042 | -0.017 ± 0.0028 | -0.025 ± 0.0099 | -0.016 ± 0.0071 |
| BF4T:CD106/VCAM-1 | 0.005 ± 0.065 | 0.007 ± 0.028 | 0.0035 ± 0.0064 | -0.0205 ± 0.0092 | -0.0175 ± 0.0078 | -0.0325 ± 0.046 | -0.021 ± 0.0028 | 0.005 ± 0.051 | -0.0025 ± 0.035 | 0.0025 ± 0.042 | -0.0145 ± 0.0078 | -0.017 ± 0.017 | 0.0325 ± 0.0092 | 0.018 ± 0.052 | 0.021 | 0.005 ± 0.0042 | -0.033 ± 0.025 | -0.08 ± 0.0028 |
| BF4T:CXCL8/IL-8 | 0.023 ± 0.031 | 0.005 ± 0.025 | 0.0175 ± 0.019 | 0.028 ± 0.016 | -0.0205 ± 0.0064 | 0.006 ± 0.0057 | 0.0095 ± 0.013 | -0.0005 ± 0.00071 | 0.008 ± 0.023 | -0.0055 ± 0.025 | 0.0155 ± 0.0078 | 0.0415 ± 0.042 | 0.0025 ± 0.016 | 0.002 ± 0.034 | 0 | -0.006 ± 0.023 | -0.0105 ± 0.025 | 0.005 ± 0.027 |
| BF4T:IL-1alpha | 0.016 ± 0.025 | -0.0195 ± 0.011 | -0.009 ± 0.02 | 0.017 ± 0.018 | 0.0135 ± 0.00071 | 0.0135 ± 0.016 | 0.011 ± 0.016 | -0.017 ± 0.018 | 0.012 ± 0.02 | -0.001 ± 0.0042 | -0.0035 ± 0.012 | 0.007 ± 0.0042 | -0.003 ± 0.0085 | -0.017 ± 0.0014 | 0.042 | -0.0115 ± 0.0078 | -0.0305 ± 0.011 | 0.012 ± 0.038 |
| BF4T:Keratin 8/18 | 0.0145 ± 0.043 | -0.0005 ± 0.013 | -0.0105 ± 0.015 | 0.0135 ± 0.023 | -0.0245 ± 0.028 | -0.0145 ± 0.011 | -0.0045 ± 0.015 | 0.006 ± 0.016 | 0.0055 ± 0.0078 | 0.017 ± 0.028 | 0.0165 ± 0.015 | -0.006 ± 0.037 | -0.012 ± 0.0057 | -0.0165 ± 0.016 | 0.039 | -0.003 ± 0.055 | 0.0035 ± 0.059 | 0.0085 ± 0.036 |
| BF4T:MMP-1 | 0 ± 0.025 | -0.005 ± 0.0057 | -0.0015 ± 0.013 | 0.0045 ± 0.00071 | 0.0035 ± 0.0064 | -0.009 ± 0.013 | -0.0045 ± 0.00071 | -0.0155 ± 0.035 | 0.0075 ± 0.052 | 0.0005 ± 0.015 | -0.009 ± 0.0071 | -0.0005 ± 0.0078 | 0.015 ± 0.02 | 0.006 ± 0.024 | 0.092 | -0.003 ± 0.044 | -0.003 ± 0.051 | 0.047 ± 0.031 |
| BF4T:MMP-3 | 0.042 ± 0.054 | -0.0155 ± 0.061 | 0.0115 ± 0.032 | 0.0155 ± 0.012 | 0.014 ± 0.0014 | 0.001 | 0.042 ± 0.033 | 0.005 ± 0.0057 | -0.0135 ± 0.016 | 0.003 ± 0.024 | -0.0095 ± 0.00071 | 0.0295 ± 0.043 | 0.0035 ± 0.032 | 0.003 ± 0.055 | 0.148 | -0.008 ± 0.021 | 0.0315 ± 0.052 | 0.0525 ± 0.00071 |
